Measured values as given in PubChem BioAssay AID1918939 (Molecular Pharmacology Branch, DTP, NCI, 2023).

Test system: 653999-131-R-J2-PDC complex spheroid viability
Test: Anticancer human tumor 653999-131-R-J2-PDC patient-derived lung adenocarcinoma cell line growth inhibition
Conditions: for IC50: curve of first compound; for viability, T/C: stronger effect = lower value
Procedure, shortened: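 Multicellular complex spheroids of tumor cells with human endothelial cells (HUVEC) and mesenchymal stem cells; the LSD1 inhibitor iadademstat was combined with standard-of-care or investigational agents. Top concentration at or near clinical Cmax, half-log dilutions; final DMSO ≤0.25%.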
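Further: spheroids exposed to agents for seven days before readout.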

O=C(c1cc(Cc2n[nH]c(=O)c3ccccc23)ccc1F)N1CCN(C(=O)C2CC2)CC1 + NC1CC1c1ccc(-c2cccc(O)c2)cc1
IC50 (second compound 0.1 µM): > 10 µM | IC50 (second compound 0.316 µM): > 10 µM | IC50 (second compound 1 µM): > 10 µM | IC50 (second compound 3.16 µM): > 10 µM | IC50 (second compound 10 µM): > 10 µM | viability, T/C (second compound 0.1 µM, first compound 0.0316 µM): 102% | viability, T/C (second compound 0.1 µM, first compound 0.1 µM): 106% | viability, T/C (second compound 0.1 µM, first compound 0.316 µM): 95.1% | viability, T/C (second compound 0.1 µM, first compound 1 µM): 89.1% | viability, T/C (second compound 0.1 µM, first compound 3.16 µM): 76.5% | viability, T/C (second compound 0.1 µM, first compound 10 µM): 66.1% | viability, T/C (second compound 0.316 µM, first compound 0.0316 µM): 93.8% | viability, T/C (second compound 0.316 µM, first compound 0.1 µM): 90.7% | viability, T/C (second compound 0.316 µM, first compound 0.316 µM): 82.6% | viability, T/C (second compound 0.316 µM, first compound 1 µM): 72% | viability, T/C (second compound 0.316 µM, first compound 3.16 µM): 59.9% | viability, T/C (second compound 0.316 µM, first compound 10 µM): 65.4% | viability, T/C (second compound 1 µM, first compound 0.0316 µM): 86.1% | viability, T/C (second compound 1 µM, first compound 0.1 µM): 80.4% | viability, T/C (second compound 1 µM, first compound 0.316 µM): 90.8% | viability, T/C (second compound 1 µM, first compound 1 µM): 64.3% | viability, T/C (second compound 1 µM, first compound 3.16 µM): 75.3% | viability, T/C (second compound 1 µM, first compound 10 µM): 63.5% | viability, T/C (second compound 3.16 µM, first compound 0.0316 µM): 78.5% | viability, T/C (second compound 3.16 µM, first compound 0.1 µM): 87.2% | viability, T/C (second compound 3.16 µM, first compound 0.316 µM): 87% | viability, T/C (second compound 3.16 µM, first compound 1 µM): 82.5% | viability, T/C (second compound 3.16 µM, first compound 3.16 µM): 71.4% | viability, T/C (second compound 3.16 µM, first compound 10 µM): 64.6% | viability, T/C (second compound 10 µM, first compound 0.0316 µM): 92.8% | viability, T/C (second compound 10 µM, first compound 0.1 µM): 79.7% | viability, T/C (second compound 10 µM, first compound 0.316 µM): 87.9% | viability, T/C (second compound 10 µM, first compound 1 µM): 78.3% | viability, T/C (second compound 10 µM, first compound 3.16 µM): 71.7% | viability, T/C (second compound 10 µM, first compound 10 µM): 58.5%
